Columns and labels:
[1] = test system: FLT3, KIT, MET, RET, VEGFR2; details: one bound for FLT3, KIT; cited from earlier work
DMM-induced OA = assay: Systemic imatinib in DMM model of OA (Example 5); assay type: in vivo, mice; details: 33 mg/kg/day or 100 mg/kg, orally twice-daily for 12 weeks starting one day after DMM surgery
ABL, KIT, PDGFRs, DDRs = details: read-out: IC50 (nM/L), one bound for ABL; cited from earlier work
allergic rhinitis = details: phase II clinical trial for allergic rhinitis; cited from earlier work
allergic rhinorrhea = details: intranasal dosing; cited from earlier work
[2] = test system: tie2, pdgfrs, ret, kit, B-RAF; details: one bound for tie2, pdgfrs; cited from earlier work
[3] = test system: VEGFRs, PDGFRs, B-RAF, MEK, ERK, c-FMS; details: one bound for VEGFRs; cited from earlier work

For `COc1cc2nccc(Oc3ccc(NC(=O)C4(C(=O)Nc5ccc(F)cc5)CC4)cc3)c2cc1OC` [Cabozatinib], the IC50 [1] is listed as < 15 nM.

In the case of `Cc1ccc(NC(=O)c2ccc(CN3CCN(C)CC3)cc2)cc1Nc1nccc(-c2cccnc2)n1` [Imatinib], the “development of DMM-induced OA (histological scores of cartilage damage, synovitis and osteophyte formation)” value (DMM-induced OA) is reported as “prevented the development of DMM-induced OA”.

In the case of `Oc1cccc(Nc2ncc(F)c(Nc3cccc(O)c3)n2)c1` [R112], the efficacy versus placebo (allergic rhinitis) is given as “lack of efficacy versus placebo”, the allergic rhinorrhea (allergic rhinorrhea) is given as “effectively improved allergic rhinorrhea” and the safety (allergic rhinorrhea) is given as “safe”.

In the case of `CNC(=O)c1cc(Oc2ccc(NC(=O)Nc3ccc(Cl)c(C(F)(F)F)c3)cc2)ccn1` [Sorafenib], the IC50 [3] is listed as < 100 nM.
